Data on one substance can be found in patent US20230204598A1, “MAM-SPECIFIC FLUORESCENCE MARKER AND USE THEREOF” (POSTECH ACADEMY-INDUSTRY FOUNDATION, priority 2016, published 2023).

This assay deals with MAM structure in HEK293 cells. Briefly: Verification of MAM specificity of the fluorescent marker using a drug (MAM suppressor). Format: cell-based. The note with it: HEK293 cells transfected with the MAM-specific bimolecular fluorescent marker; 150 μM added to the cell culture solution; incubated for 3 or 24 hours; fluorescence microscope (FIG. 7). Here is the method:
HEK293 cells transfected in Example 4-1 were incubated in DMEM containing a 10% fetal bovine serum (FBS) for 24 hours under conditions of 37° C. and 5% CO2. Afterward, the culture solution was washed with PBS, and then cells were fixed by treatment with a 4% para-formaldehyde cell fixing solution for 10 minutes. The cell fixing solution was sufficiently washed with PBS, and a cover glass was immobilized on a slide glass using a mounting solution, thereby manufacturing a microscope sample. […]
The MAM-specific bimolecular fluorescent marker was transfected into HEK293 cells in the same manner as in Example 5-1, 150 μM of methyl-β-cyclodextrin known as a MAM suppressor was added to the cell culture solution, and the cells were incubated for 3 or 24 hours under cell culture conditions, thereby manufacturing a microscope sample, and then the microscope sample was observed using a fluorescence microscope.

Turning to methyl-β-cyclodextrin, the “fluorescence level of the MAM-specific fluorescent marker” value is on record as “significantly reduced”.
